Measured values as given in patent publication US5451688A, “Hexahydronaphthalene ester derivatives, their preparation and their therapeutic uses” (Sankyo Company, Limited, priority 1992, dated 1995).
pIC50: −log10 of the molar value. Where two headings read alike, the source gives them in different places.

What was measured:
[1] = system: sterol synthesis in the liver; experiment: inhibitory activity against sterol synthesis in mouse liver; format: in vivo; conditions: read-out: Sterol-synthesis inhibitory activity ED50
Description: Detemination of inhibitory activity against sterol synsthesis in mouse liver
Sterol synthesis in the liver in mice was measured by the method of Koga et al. [Biochem. Biophys.
15 μl of [^14 C]acetate was intraperitoneally injected into each mouse. One hour later, the animal was sacrificed by decapitation and the liver was excised. Sterol synthesis in the liver was measured by the incorporation of [^14 C]activity into the digitoninprecipitable sterols.
The sterol synthesis activity in a control animal receiving only a 1% Tween 80 solution was defined as 100%.

HMG-CoA reductase = target: T1, HMG-CoA reductase (Rattus norvegicus, UniProt P51639); experiment: HMG-CoA reductase inhibitory activity; format: biochemical; conditions: rat liver microsomal fraction, 0.2 mM [14C]HMG-CoA, pH 7.4, 15 minutes at 37° C.
T1 sequence (P51639 1-887): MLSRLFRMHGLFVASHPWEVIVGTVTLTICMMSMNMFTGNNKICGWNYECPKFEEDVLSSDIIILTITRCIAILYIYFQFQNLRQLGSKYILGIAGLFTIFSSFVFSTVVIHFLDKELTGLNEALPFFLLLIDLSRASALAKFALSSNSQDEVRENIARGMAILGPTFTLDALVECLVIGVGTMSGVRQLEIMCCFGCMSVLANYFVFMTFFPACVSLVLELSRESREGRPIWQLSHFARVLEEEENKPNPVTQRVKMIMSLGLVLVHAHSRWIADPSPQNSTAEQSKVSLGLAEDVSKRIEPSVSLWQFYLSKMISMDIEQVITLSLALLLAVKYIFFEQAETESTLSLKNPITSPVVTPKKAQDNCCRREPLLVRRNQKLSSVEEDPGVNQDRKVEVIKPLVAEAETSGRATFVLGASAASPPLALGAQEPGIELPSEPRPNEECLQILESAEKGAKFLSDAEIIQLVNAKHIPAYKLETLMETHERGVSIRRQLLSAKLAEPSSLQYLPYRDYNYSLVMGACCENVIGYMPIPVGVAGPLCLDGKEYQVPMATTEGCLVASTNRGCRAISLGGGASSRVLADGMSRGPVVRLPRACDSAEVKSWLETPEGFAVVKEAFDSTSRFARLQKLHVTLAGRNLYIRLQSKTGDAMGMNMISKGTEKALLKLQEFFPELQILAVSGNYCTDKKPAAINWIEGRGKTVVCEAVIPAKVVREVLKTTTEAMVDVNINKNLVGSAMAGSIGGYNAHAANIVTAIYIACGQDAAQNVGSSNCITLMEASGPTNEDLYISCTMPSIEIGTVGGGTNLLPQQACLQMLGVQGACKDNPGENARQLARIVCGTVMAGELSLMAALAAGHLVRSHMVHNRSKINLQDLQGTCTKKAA

[2] = mice, oral, 2 hours before [14C]acetate, dose required to inhibit sterol synthesis in the liver by 50%

| pIC50 (HMG-CoA reductase) | SMILES | ED50 ([1]; po) [mg/kg] | ED50 [1, 2] [mg/kg] |
| --- | --- | --- | --- |
| 7.48 | CCCCC(C)(C)C(=O)O[C@H]1C[C@H](O)C=C2C=C[C@H](C)[C@H](CC[C@@H](O)C[C@@H](O)CC(=O)O)[C@H]21 [Example 69, Sodium (3R,5R)-3,5-dihydroxy-7-[(1S,2S,6S,8S,8aR)-6-hydroxy-2-methyl-8-[2,2-dimethylhexanoyloxy)-1,2.6.7,8,8a-hexahydro-1-naphthyl]heptanoate] |  | 0.028 |
| 7.35 | CCC(C)(C)C(=O)OC1CC(O)C=C2C=CC(C)C(CCC3CC(O)CC(=O)O3)C21 (stereo not shown) [Prior art cpd., reference compound] |  | 0.58 |
| 7.47 | CCC(C)(CC)C(=O)O[C@H]1C[C@H](O)C=C2C=C[C@H](C)[C@H](CC[C@@H](O)C[C@@H](O)CC(=O)O)[C@H]21 [Example 51, Sodium (3R,5R)-3,5-dihydro-7-[(1S,2S,6S,8S,8aR)-6-hydroxy-2-methyl-8-(2-ethyl-2-methylbutyryloxy)-1,2,6,7,8,8a-hexahydro-1-naphthyl]heptanoate] |  | 0.063 |
| 7.49 | CCC[C@](C)(CC)C(=O)O[C@H]1C[C@H](O)C=C2C=C[C@H](C)[C@H](CC[C@@H](O)C[C@@H](O)CC(=O)O)[C@H]21 [Example 67, Sodium (3R,5R)-3,5-dihydroxy-7-[(2S,2S,6S,8S,8aR)-6-hydroxy-2-methyl-8-(2-ethyl-2-methylvaleryloxy)-1,2,6,7,8,8a-hexahydro-1-naphthyl]heptanoate] |  | 0.048 |
| 7.46 | C=CCC(CC)(CC)C(=O)O[C@H]1C[C@H](O)C=C2C=C[C@H](C)[C@H](CC[C@@H](O)C[C@@H](O)CC(=O)O)[C@H]21 [Example 64, Sodium (3R,5R),3,5-dihydroxy-7-[(1S,2S,6S,8S,8aR)-6-hydroxy-2-methyl-8-(2,2-diethyl-4-pentenoyloxy)-1,2,6,7,8,8a-hexahydro-1-naphthyl]heptanoate] |  | 0.13 |
| 7.49 | CCC(CC)(CC)C(=O)O[C@H]1C[C@H](O)C=C2C=C[C@H](C)[C@H](CC[C@@H](O)C[C@@H](O)CC(=O)O)[C@H]21 [Example 52, Sodium (3R,5R)-3,5-dihydroxy-7-[(1S,2S,6S,8S,8aR)-6-hydroxy-2-methyl-8-(2.2-diethylbutyryloxy)-1,2,6,7,8,8a-hexahydro-1-naphthyl]heptanoate] |  | 0.054 |
| 7.44 | C=CCC(CC)(CC=C)C(=O)O[C@H]1C[C@H](O)C=C2C=C[C@H](C)[C@H](CC[C@@H](O)C[C@@H](O)CC(=O)O)[C@H]21 [Example 65, Sodium (3R,5R)-3,5-dihydroxy-7-[(1S,2S,6S,8S,8aR)-6-hydroxy-2-methyl-8-(2-allyl-2-ethyl-4-pentenoyloxy)-1.2.6,7,8,8a-hexahydro-1-naphthyl]heptanoate] |  | 0.19 |

| SMILES | pIC50 (HMG-CoA reductase) | ED50 ([1]; po) [mg/kg] | ED50 [1, 2] [mg/kg] |
| --- | --- | --- | --- |
| CCCC(CCC)C(=O)O[C@H]1C[C@H](O)C=C2C=C[C@H](C)[C@H](CC[C@@H](O)C[C@@H](O)CC(=O)[O-])[C@H]21.[Na+] | 7.45 | 0.15 |  |
